{"source": "patent US20240018122A1", "about": "“PYRIDAZINYL AMINO DERIVATIVES AS ALK5 INHIBITORS” (CHIESI FARMACEUTICI S.P.A., priority 2020, published 2024)", "molecular_target": "human ALK5 (Homo sapiens (Human), UniProt P36897)", "sequence (P36897 80-503 limits assumed)": "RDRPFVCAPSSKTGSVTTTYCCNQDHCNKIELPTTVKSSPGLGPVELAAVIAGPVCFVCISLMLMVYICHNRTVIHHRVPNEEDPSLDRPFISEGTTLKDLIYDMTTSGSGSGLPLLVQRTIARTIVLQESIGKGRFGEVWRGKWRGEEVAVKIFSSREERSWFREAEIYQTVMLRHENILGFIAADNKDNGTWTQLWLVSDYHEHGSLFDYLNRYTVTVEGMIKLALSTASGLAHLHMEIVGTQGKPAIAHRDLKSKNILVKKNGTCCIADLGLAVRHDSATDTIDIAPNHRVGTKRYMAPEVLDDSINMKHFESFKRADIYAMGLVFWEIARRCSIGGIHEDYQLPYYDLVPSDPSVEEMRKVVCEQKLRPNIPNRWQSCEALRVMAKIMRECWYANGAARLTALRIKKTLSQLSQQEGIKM", "test": "ADP-GLO Kinases assay, inhibitory activity on ALK5", "assay_type": "biochemical", "key": {"[1]": {"details": "purified recombinant human ALK5 2.6 nM, TGFβ1 peptide substrate, 25° C, 150 min incubation, ADP-Glo detection, read-out: ALK5 IC50"}}, "note": "Like-named read-outs stand apart in the source and are kept apart here.", "data": [{"smiles": "Cc1nnc(-c2cc(Cl)c(F)cc2F)cc1Nc1ccnc(NC(=O)CCN2CCN(C)CC2)c1", "note": "[Example 151, N-(4-{[6-(5-chloro-2,4-difluorophenyl)-3-methylpyridazin-4-yl]amino}pyridin-2-yl)-3-(4-methylpiperazin-1-yl)propanamide]", "values": [{"measurement": "IC50", "setting": "[1]", "result": "< 1", "unit": "nM"}]}, {"smiles": "Cc1nnc(-c2cc(Cl)ccc2F)cc1Nc1ccnc2cc(OC(=O)N3CC(N4CCCC4)C3)ccc12", "note": "[Example 152, 4-{[6-(5-Chloro-2-Fluorophenyl)-3-Methylpyridazin-4-Yl]Amino}Quinolin-7-Yl 3-(Pyrrolidin-1-Yl)Azetidine-1-Carboxylate]", "values": [{"measurement": "IC50", "setting": "[1]", "result": "< 1", "unit": "nM"}]}, {"smiles": "Cc1nnc(-c2cc(Cl)ccc2F)cc1Nc1ccnc2cc(OC(=O)N3CCC(N4CCC4)CC3)ccc12", "note": "[Example 153, 4-{[6-(5-Chloro-2-Fluorophenyl)-3-Methylpyridazin-4-Yl]Amino}Quinolin-7-Yl 4-(Azetidin-1-Yl)Piperidine-1-Carboxylate]", "values": [{"measurement": "IC50", "setting": "[1]", "result": "< 1", "unit": "nM"}]}, {"smiles": "Cc1nnc(-c2cc(Cl)ccc2F)cc1Nc1ccnc(NC(=O)CN2CCCNCC2)c1", "note": "[Example 154, N-(4-{[6-(5-Chloro-2-Fluorophenyl)-3-Methylpyridazin-4-Yl]Amino}Pyridin-2-Yl)-2-(1,4-Diazepan-1-Yl)Acetamide]", "values": [{"measurement": "IC50", "setting": "[1]", "result": "< 1", "unit": "nM"}]}, {"smiles": "CNCCn1cc(C(=O)Nc2cc(Nc3cc(-c4cc(Cl)ccc4F)nnc3C)ccn2)cn1", "note": "[Example 155, N-(4-{[6-(5-Chloro-2-Fluorophenyl)-3-Methylpyridazin-4-Yl]Amino}Pyridin-2-Yl)-1-[2-(Methylamino)Ethyl]-1H-Pyrazole-4-Carboxamide]", "values": [{"measurement": "IC50", "setting": "[1]", "result": "< 1", "unit": "nM"}]}, {"smiles": "Cc1nnc(-c2cc(Cl)ccc2F)cc1Nc1ccnc(NC(=O)c2cnn(CCN(C)C)c2)c1", "note": "[Example 156, N-(4-{[6-(5-Chloro-2-Fluorophenyl)-3-Methylpyridazin-4-Yl]Amino}Pyridin-2-Yl)-1-[2-(Dimethylamino)Ethyl]-1H-Pyrazole-4-Carboxamide]", "values": [{"measurement": "IC50", "setting": "[1]", "result": "< 1", "unit": "nM"}]}, {"smiles": "Cc1nnc(-c2cc(Cl)ccc2F)cc1Nc1ccnc(NC(=O)CC2CCN(C)CC2)c1", "note": "[Example 157, N-(4-{[6-(5-Chloro-2-Fluorophenyl)-3-Methylpyridazin-4-Yl]Amino}Pyridin-2-Yl)-2-(1-Methylpiperidin-4-Yl)Acetamide]", "values": [{"measurement": "IC50", "setting": "[1]", "result": "< 1", "unit": "nM"}]}, {"smiles": "Cc1nnc(-c2cc(Cl)ccc2F)cc1Nc1ccnc(NC(=O)CCCN2CCCNCC2)c1", "note": "[Example 158, N-(4-{[6-(5-Chloro-2-Fluorophenyl)-3-Methylpyridazin-4-Yl]Amino}Pyridin-2-Yl)-4-(1,4-Diazepan-1-Yl)Butanamide]", "values": [{"measurement": "IC50", "setting": "[1]", "result": "< 1", "unit": "nM"}]}, {"smiles": "Cc1nnc(-c2cc(Cl)ccc2F)cc1Nc1ccnc2cc(OC(=O)N3C[C@H]4C[C@@H]3CN4C)ccc12", "note": "[Example 159, 4-{[6-(5-chloro-2-fluorophenyl)-3-methylpyridazin-4-yl]amino}quinolin-7-yl (1R,4R)-5-methyl-2,5-diazabicyclo[2.2.1]heptane-2-carboxylate]", "values": [{"measurement": "IC50", "result": "< 1", "unit": "nM"}]}, {"smiles": "Cc1nnc(-c2cc(Cl)ccc2F)cc1Nc1ccnc2cc(OC(=O)N3C[C@@H]4C[C@H]3CN4C)ccc12", "note": "[Example 160, 4-{[6-(5-Chloro-2-Fluorophenyl)-3-Methylpyridazin-4-Yl]Amino}Quinolin-7-Yl (1S,4S)-5-Methyl-2,5-Diazabicyclo[2.2.1]Heptane-2-Carboxylate]", "values": [{"measurement": "IC50", "result": "< 1", "unit": "nM"}]}, {"smiles": "Cc1nnc(-c2cc(Cl)ccc2F)cc1Nc1ccnc(NC(=O)CCCN2CCCN(C)CC2)c1", "note": "[Example 161, N-(4-{[6-(5-Chloro-2-Fluorophenyl)-3-Methylpyridazin-4-Yl]Amino}Pyridin-2-Yl)-4-(4-Methyl-1,4-Diazepan-1-Yl)Butanamide]", "values": [{"measurement": "IC50", "setting": "[1]", "result": "< 1", "unit": "nM"}]}, {"smiles": "Cc1nnc(-c2cc(Cl)ccc2F)cc1Nc1ccnc(NC(=O)[C@H]2C[C@@H](N3CCN(C)CC3)C2)c1", "note": "[Example 162, Cis N-(4-{[6-(5-Chloro-2-Fluorophenyl)-3-Methylpyridazin-4-Yl]Amino}Pyridin-2-Yl)-3-(4-Methylpiperazin-1-Yl)Cyclobutane-1-Carboxamide]", "values": [{"measurement": "IC50", "setting": "[1]", "result": "< 1", "unit": "nM"}]}, {"smiles": "Cc1nnc(-c2cc(Cl)ccc2F)cc1Nc1ccnc(NC(=O)CCN2CCN(C)CC2CO)c1", "note": "(stereo not drawn) [Example 163, N-(4-{[6-(5-chloro-2-fluorophenyl)-3-methylpyridazin-4-yl]amino}pyridin-2-yl)-3-[2-(hydroxymethyl)-4-methylpiperazin-1-yl]propanamide]", "values": [{"measurement": "IC50", "setting": "[1]", "result": "< 1", "unit": "nM"}]}, {"smiles": "Cc1nnc(-c2cc(Cl)ccc2F)cc1Nc1ccnc(NC(=O)CN2CCNCC2)c1", "note": "[Example 164, N-(4-{[6-(5-Chloro-2-Fluorophenyl)-3-Methylpyridazin-4-Yl]Amino}Pyridin-2-Yl)-2-(Piperazin-1-Yl)Acetamide]", "values": [{"measurement": "IC50", "setting": "[1]", "result": "< 1", "unit": "nM"}]}, {"smiles": "COC(=O)c1cc2c(Nc3cc(-c4cc(Cl)ccc4F)nnc3CO)ccnc2cc1OCCN1CCN(C)CC1", "note": "[Example 165, Methyl 4-{[6-(5-Chloro-2-Fluorophenyl)-3-(Hydroxymethyl)Pyridazin-4-Yl]Amino}-7-[2-(4-Methylpiperazin-1-Yl)Ethoxy]Quinoline-6-Carboxylate]", "values": [{"measurement": "IC50", "setting": "[1]", "result": "< 1", "unit": "nM"}]}, {"smiles": "Cc1nnc(-c2cc(Cl)ccc2F)cc1Nc1ccnc(NC(=O)CN2CCCN(C)CC2)c1", "note": "[Example 166, N-(4-{[6-(5-Chloro-2-Fluorophenyl)-3-Methylpyridazin-4-Yl]Amino}Pyridin-2-Yl)-2-(4-Methyl-1,4-Diazepan-1-Yl)Acetamide]", "values": [{"measurement": "IC50", "setting": "[1]", "result": "< 1", "unit": "nM"}]}, {"smiles": "Cc1nnc(-c2cc(Cl)ccc2F)cc1Nc1ccnc(Nc2ccn(CCN3CCN(C)CC3)n2)c1", "note": "[Example 167, N-4-[6-(5-Chloro-2-Fluorophenyl)-3-Methylpyridazin-4-Yl]-N-2-{1-[2-(4-Methylpiperazin-1-Yl)Ethyl]-1H-Pyrazol-3-Yl}Pyridine-2,4-Diamine]", "values": [{"measurement": "IC50", "setting": "[1]", "result": "< 1", "unit": "nM"}]}, {"smiles": "Cc1nnc(-c2cc(Cl)ccc2F)cc1Nc1ccnc2cc(OC(=O)N3CCN(CCC4CCN(C)CC4)C(C(=O)OC4COC4)C3)ccc12", "note": "(stereo not drawn) [Example 168, 1-(4-{[6-(5-chloro-2-fluorophenyl)-3-methylpyridazin-4-yl]amino}quinolin-7-yl) 3-oxetan-3-yl 4-[2-(1-methylpiperidin-4-yl)ethyl]piperazine-1,3-dicarboxylate]", "values": [{"measurement": "IC50", "result": "1 to 5", "unit": "nM"}]}, {"smiles": "Cc1nnc(-c2cc(Cl)ccc2F)cc1Nc1ccnc(NC(=O)CCN2CCN(C)C(CO)C2)c1", "note": "(stereo not drawn) [Example 170]", "values": [{"measurement": "IC50", "setting": "[1]", "result": "< 1", "unit": "nM"}]}, {"smiles": "COC(=O)c1cc2c(Nc3cnnc(-c4cc(Cl)ccc4F)c3)ccnc2cc1OCCN1CCN(C)CC1", "note": "[Example 171, Methyl 4-{[6-(5-Chloro-2-Fluorophenyl)Pyridazin-4-Yl]Amino}-7-[2-(4-Methylpiperazin-1-Yl)Ethoxy]Quinoline-6-Carboxylate]", "values": [{"measurement": "IC50", "setting": "[1]", "result": "< 1", "unit": "nM"}]}, {"smiles": "Cc1nnc(-c2cc(Cl)ccc2F)cc1Nc1ccnc(NC(=O)CN2CCN(C)CC2)c1", "note": "[Example 172, N-(4-{[6-(5-Chloro-2-Fluorophenyl)-3-Methylpyridazin-4-Yl]Amino}Pyridin-2-Yl)-2-(4-Methylpiperazin-1-Yl)Acetamide]", "values": [{"measurement": "IC50", "setting": "[1]", "result": "< 1", "unit": "nM"}]}, {"smiles": "CN1CCN(CCC(=O)Nc2cc(Nc3cc(-c4cc(Cl)ccc4F)nnc3C3CC3)ccn2)CC1", "note": "[Example 173]", "values": [{"measurement": "IC50", "setting": "[1]", "result": "< 1", "unit": "nM"}]}, {"smiles": "CN1CCN(CCC(=O)Nc2cc(Nc3cc(-c4cc(Cl)ccc4F)nnc3CO)ccn2)CC1", "note": "[Example 174, N-(4-{[6-(5-chloro-2-fluorophenyl)-3-(hydroxymethyl)pyridazin-4-yl]amino}pyridin-2-yl)-3-(4-methylpiperazin-1-yl)propanamide]", "values": [{"measurement": "IC50", "setting": "[1]", "result": "< 1", "unit": "nM"}]}, {"smiles": "COC(=O)N(C)CCN1CCN(CC(=O)Nc2cc(Nc3cc(-c4cc(Cl)ccc4F)nnc3CO)ccn2)CC1", "note": "[Example 175, Methyl N-[2-(4-{[(4-{[6-(5-Chloro-2-Fluorophenyl)-3-(Hydroxymethyl)Pyridazin-4-Yl]Amino}Pyridin-2-Yl)Carbamoyl]Methyl}Piperazin-1-Yl)Ethyl]-N-Methylcarbamate]", "values": [{"measurement": "IC50", "setting": "[1]", "result": "< 1", "unit": "nM"}]}, {"smiles": "CN1CCN(CC(=O)Nc2cc(Nc3cc(-c4cc(Cl)ccc4F)nnc3CO)ccn2)CC1", "note": "[Example 176, N-(4-{[6-(5-chloro-2-fluorophenyl)-3-(hydroxymethyl)pyridazin-4-yl]amino}pyridin-2-yl)-2-(4-methylpiperazin-1-yl)acetamide]", "values": [{"measurement": "IC50", "setting": "[1]", "result": "< 1", "unit": "nM"}]}, {"smiles": "CN1CCN(CCOc2ccc3c(Nc4cc(-c5cc(Cl)ccc5F)nnc4CO)ccnc3c2)CC1", "note": "[Example 177, [6-(5-Chloro-2-Fluorophenyl)-4-({7-[2-(4-Methylpiperazin-1-Yl)Ethoxy]Quinolin-4-Yl}Amino)Pyridazin-3-Yl]Methanol]", "values": [{"measurement": "IC50", "setting": "[1]", "result": "< 1", "unit": "nM"}]}, {"smiles": "CN1CCCN(CC(=O)Nc2cc(Nc3cc(-c4cc(Cl)ccc4F)nnc3CO)ccn2)CC1", "note": "[Example 178, N-(4-{[6-(5-Chloro-2-Fluorophenyl)-3-(Hydroxymethyl)Pyridazin-4-Yl]Amino}Pyridin-2-Yl)-2-(4-Methyl-1,4-Diazepan-1-Yl)Acetamide]", "values": [{"measurement": "IC50", "setting": "[1]", "result": "< 1", "unit": "nM"}]}, {"smiles": "CN1CC2(CCN(CC(=O)Nc3cc(Nc4cc(-c5cc(Cl)ccc5F)nnc4CO)ccn3)CC2)C1", "note": "[Example 179, N-(4-{[6-(5-Chloro-2-Fluorophenyl)-3-(Hydroxymethyl)Pyridazin-4-Yl]Amino}Pyridin-2-Yl)-2-{2-Methyl-2,7-Diazaspiro[3.5]Nonan-7-Yl}Acetamide]", "values": [{"measurement": "IC50", "setting": "[1]", "result": "< 1", "unit": "nM"}]}, {"smiles": "Nc1cc(Nc2cc(-c3cc(Cl)ccc3F)nnc2C(F)(F)F)ccn1", "note": "[Example 180, N4-[6-(5-Chloro-2-Fluorophenyl)-3-(Trifluoromethyl)Pyridazin-4-Yl]Pyridine-2,4-Diamine]", "values": [{"measurement": "IC50", "setting": "[1]", "result": "< 1", "unit": "nM"}]}, {"smiles": "Fc1ccc(Cl)cc1-c1cc(Nc2ccncc2)c(C(F)(F)F)nn1", "note": "[Example 181]", "values": [{"measurement": "IC50", "setting": "[1]", "result": "< 1", "unit": "nM"}]}, {"smiles": "CN1CCN(CCC(=O)Nc2cc(Nc3cc(-c4cc(Cl)ccc4F)nnc3C(F)(F)F)ccn2)CC1", "note": "[Example 182, N-(4-{[6-(5-Chloro-2-Fluorophenyl)-3-(Trifluoromethyl) Pyridazin-4-Yl]Amino}Pyridin-2-Yl)-3-(4-Methylpiperazin-1-Yl)Propanamide]", "values": [{"measurement": "IC50", "setting": "[1]", "result": "< 1", "unit": "nM"}]}, {"smiles": "CN1CCN(CCOc2ccc3c(Nc4cc(-c5cc(Cl)ccc5F)nnc4C(F)(F)F)ccnc3c2)CC1", "note": "[Example 183, N-[6-(5-Chloro-2-Fluorophenyl)-3-(Trifluoromethyl)Pyridazin-4-Yl]-7-[2-(4-Methylpiperazin-1-Yl)Ethoxy]Quinolin-4-Amine]", "values": [{"measurement": "IC50", "setting": "[1]", "result": "< 1", "unit": "nM"}]}, {"smiles": "O=C(CCN1CCN(CCO)CC1)Nc1cc(Nc2cc(-c3cc(Cl)ccc3F)nnc2C(F)(F)F)ccn1", "note": "[Example 184, N-(4-{[6-(5-Chloro-2-Fluorophenyl)-3-(Trifluoromethyl)Pyridazin-4-Yl]Amino}Pyridin-2-Yl)-3-[4-(2-Hydroxyethyl)Piperazin-1-Yl]Propenamide]", "values": [{"measurement": "IC50", "setting": "[1]", "result": "< 1", "unit": "nM"}]}]}
